The values that follow come from US5776948A, “Fluoroquinoline derivative” (Chugai Seiyaku Kabushiki Kaisha, priority 1992, dated 1998).

As usually defined, the IC50 is the concentration that inhibits the measured activity by half. As usually defined, the MIC is the lowest concentration found to suppress growth.

In series [1] the test system is mouse lymphatic leukemia cell line L1210. Briefly: Cytotoxicity test (MTT method). Format: cell-based. The procedure: The 50% inhibitory concentrations (IC50) of the test compounds on a mouse lymphatic leukemia cell line L1210 were determined by the MTT [3-(4,5-dimethylthiazol-2-yl)-2,5-diphenyltetrazolium bromide] method.
Namely, 2×10^4 L1210 cells were incubated in 200 μl of a culture medium (RPMI-1640 medium containing 10% of fetal bovine serum) containing a two-fold serial dilution of a test compound at 37° C. for a day. Four hours before the completion of the incubation, 10 μl of a 5 mg/ml solution of MTT was added. When the incubation was completed, the culture medium was eliminated by sucking and the insoluble formazan, which had been reduced by the mitochondrial dehydrogenase of the cells, was extracted with 100 μl of dimethylsulfoxide. Then the absorbance was measured at 550 nm. The cell propagation ratio was expressed in the ratio of the formazan formation of the test lot to that of the control lot wherein cells were incubated in a medium free from any test compound. Then IC50 was determined by the probit method.
A general note: Tetrazolium dyes change colour on reduction, which living cells bring about.

The nature of series [2]: Phototoxicity test (UVA irradiation, MTT method). To be noted: mouse, l1210 cells; L1210, UVA 0.5 J, 2 days incubation; read-out: Phototoxicity (%; propagation ratio under 0.5 J-irradiation to non-irradiation lot). Also noted: dose or concentration left out as unconfirmed. In kind it is cell-based. Here is the method: The phototoxicity was determined by enhancing the cytotoxicity of a test compound on L1210 via UV irradiation. […] After the irradiation, 100 μl of a culture medium was added and the cells were incubated at 37° C. for 2 days.

For series [3] the following is noted: background art; cited from earlier work.
Series [4] deals with A. calcoaceticus IFO 12552. Put plainly: Antibacterial activity test, MIC by agar plate dilution method. Format: cell-based. The settings on record: unit assumed. Here is the method:
(§1) The minimum inhibitory concentrations (MIC) of the test compounds were measured by the publicly known agar plate dilution method.

The test system of the next series is A. faecalis IFO 13111. Described as above. Format: cell-based. To be noted: unit assumed. The procedure: as §1
In a further series the test system is B. cereus IFO 13494. Described as above. Format: cell-based. To be noted: unit assumed. The procedure:
as §1

A further series concerns B. subtilis ATCC 6633. Described as above. Format: cell-based. To be noted: unit assumed. The procedure: as §1
The next series concerns C. freundii IFO 12681. Described as above. To be noted: unit assumed. In kind it is cell-based. The procedure:
as §1

In the next series the test system is CSJ 1922. The series is described as above. In kind it is cell-based. The settings on record: CSJ 1922 (listed under E. coli); unit assumed. The procedure: as §1
The test system of another series is E. aeruginosa IFO 13534. The series is described as above. Format: cell-based. The settings on record: unit assumed. The procedure:
as §1

A further series relates to E. cloacae IFO 3320. The description is as above. Format: cell-based. The settings on record: unit assumed. The procedure: as §1
The next series concerns E. coli NIHJ JC-2. The description is as above. In kind it is cell-based. To be noted: unit assumed. The procedure:
as §1

A further series deals with JU-5. The description is as above. To be noted: JU-5 (listed under S. aureus); unit assumed. In kind it is cell-based. Here is the method: as §1
The subject of another series is K. pneumoniae B-54. Described as above. The settings on record: unit assumed. Format: cell-based. The procedure: as §1
A further series deals with M. morganii IFO 3848. The description is as above. In kind it is cell-based. To be noted: unit assumed. Here is the method:
as §1

For a further series, the system named is MRSA RN-10. The description is as above. To be noted: unit assumed. Format: cell-based. The procedure: as §1
A further series concerns P. aeruginosa GNB-139. The series is described as above. Format: cell-based. To be noted: unit assumed. Here is the method:
as §1

The next series relates to P. mirabilis IFO 13300. The description is as above. The settings on record: unit assumed. Format: cell-based. Here is the method: as §1
A further series has as its system P. rettgeri IFO 13501. The description is as above. Format: cell-based. The settings on record: unit assumed. The procedure: as §1
The test system of the next series is P. vulgaris IFO 3851. Described as above. The settings on record: unit assumed. In kind it is cell-based. Here is the method: as §1
The test system of another series is S. aureus 209P. The series is described as above. To be noted: unit assumed. Format: cell-based. The procedure: as §1
For a further series, the system named is S. epidermidis IFO 12993. The description is as above. Format: cell-based. To be noted: unit assumed. Here is the method:
as §1

The next series relates to S. marcescens IFO 12648. Described as above. Format: cell-based. To be noted: unit assumed. The procedure: as §1
The test system of the next series is S. typhimurium LT-2. The series is described as above. Format: cell-based. To be noted: unit assumed. The procedure: as §1
For the next series, the system named is TO-101. Described as above. In kind it is cell-based. The settings on record: TO-101 (listed under S. marcescens); unit assumed. The procedure: as §1
The subject of another series is X. maltophilia IFO 14161. The series is described as above. Format: cell-based. To be noted: unit assumed. The procedure:
as §1

The mark [5] stands for this setting: L1210 cells, 37° C., a day, MTT, read-out: IC50.

Converted amounts (≈) assume the structure as drawn. Like-named read-outs stand apart in the source and are kept apart here. A value given as a limit tells only on which side of the number the result lay.

For the molecule `CC1COc2c(N3CCN(C)CC3)c(F)cc3c(=O)c(C(=O)O)cn1c23` (stereo not shown) [Ofloxacin, reference compound], the IC50 in series [1] (setting [5]) is 195 µg/mL (≈ 540 µM). Further, the viability at 48 h in series [2] was found to be 69%.

Consider `CCn1cc(C(=O)O)c(=O)c2cc(F)c(N3CCNCC3)cc21` [norfloxacin], for which the “solubility under physiological conditions” value in series [3] was “poor solubility”.

`COc1c(C2(N)CCC2)c(F)cc2c(=O)c(C(=O)O)cn(C3CC3)c12.Cl` [Ex. 23, 7-(1-aminocyclobutyl)-1-cyclopropyl-6-fluoro-8-methoxy-1,4-dihydro-4-oxo-3-quinolinecarboxylic acid hydrochloride]: the MIC in [4] is 1.56 µg/mL; in the series with A. faecalis IFO 13111, 1.56 µg/mL; against B. cereus IFO 13494 it was 0.78 µg/mL; against B. subtilis ATCC 6633, 0.1 µg/mL; in the series with C. freundii IFO 12681, 0.2 µg/mL; against CSJ 1922, 0.2 µg/mL. The MIC stood at 0.39 µg/mL in the series with E. aeruginosa IFO 13534; 0.1 µg/mL in the series on E. cloacae IFO 3320; 0.2 µg/mL in the series on E. coli NIHJ JC-2; 0.39 µg/mL in the series with JU-5; 0.2 µg/mL in the series on K. pneumoniae B-54; 0.1 µg/mL in the series on M. morganii IFO 3848. For the same molecule, the MIC in the series with MRSA RN-10 amounted to 0.78 µg/mL; in the series with P. aeruginosa GNB-139, 3.13 µg/mL; in the series on P. mirabilis IFO 13300 it was 0.39 µg/mL; in the series with P. rettgeri IFO 13501, 0.39 µg/mL; with P. vulgaris IFO 3851, 0.2 µg/mL; in the series on S. aureus 209P, 0.78 µg/mL. The MIC with S. epidermidis IFO 12993 came to 1.56 µg/mL; in the series on S. marcescens IFO 12648, 0.78 µg/mL; against S. typhimurium LT-2, 0.39 µg/mL; with TO-101 it was 0.39 µg/mL; in the series with X. maltophilia IFO 14161, 0.78 µg/mL.

For `COc1c(C2(N)CCCCC2)c(F)cc2c(=O)c(C(=O)O)cn(C3CC3)c12.Cl` [Ex. 17, 7-(1-aminocyclohexyl)-1-cyclopropyl-6-fluoro-8-methoxy-1,4-dihydro-4-oxo-3-quinolinecarboxylic acid hydrochloride], the IC50 in series [1] (L1210) turned out to be 399 µg/mL.

In the case of `COc1c(C2(N)CCCC2)c(F)cc2c(=O)c(C(=O)O)cn(C3CC3)c12.Cl` [Ex. 16, 7-(1-aminocyclopentyl)-1-cyclopropyl-6-fluoro-8-methoxy-1,4-dihydro-4-oxo-3-quinolinecarboxylic acid hydrochloride], the MIC is 0.78 µg/mL in series [4]; 1.56 µg/mL against A. faecalis IFO 13111; 0.78 µg/mL in the series on B. cereus IFO 13494; 0.1 µg/mL against B. subtilis ATCC 6633; 0.2 µg/mL in the series with C. freundii IFO 12681; 0.2 µg/mL in the series on CSJ 1922. Also, the MIC was 0.39 µg/mL in the series with E. aeruginosa IFO 13534; 0.1 µg/mL in the series on E. cloacae IFO 3320; 0.39 µg/mL against E. coli NIHJ JC-2; 0.39 µg/mL against JU-5; 0.2 µg/mL in the series on K. pneumoniae B-54; 0.2 µg/mL against M. morganii IFO 3848. The MIC amounted to 1.56 µg/mL with MRSA RN-10; 3.13 µg/mL with P. aeruginosa GNB-139; 0.2 µg/mL with P. mirabilis IFO 13300; 0.2 µg/mL in the series on P. rettgeri IFO 13501; 0.2 µg/mL in the series with P. vulgaris IFO 3851; 1.56 µg/mL with S. aureus 209P. In addition, the MIC is 3.13 µg/mL in the series on S. epidermidis IFO 12993; 0.39 µg/mL in the series with S. marcescens IFO 12648; 0.39 µg/mL with S. typhimurium LT-2; 0.39 µg/mL in the series on TO-101; 0.78 µg/mL in the series on X. maltophilia IFO 14161. The IC50 in [1] (setting [5]) amounted to 399 µg/mL.

As for `O=C(O)c1cn(C2CC2)c2cc(N3CCNCC3)c(F)cc2c1=O` [Ciprofloxacin, reference compound], in [1] (setting [5]), the IC50 is 77 µg/mL (≈ 232 µM).

Turning to `COc1c(C2(N)CC2)c(F)cc2c(=O)c(C(=O)O)cn(C3CC3)c12.Cl` [Ex. 26, 7-(1-aminocyclopropyl)-1-cyclopropyl-6-fluoro-8-methoxy-1,4-dihydro-4-oxo-3-quinolinecarboxylic acid hydrochloride], the MIC in series [4] is 0.78 µg/mL; in the series on A. faecalis IFO 13111 it was 1.56 µg/mL; with B. cereus IFO 13494 it was 0.2 µg/mL; in the series on B. subtilis ATCC 6633, 0.05 µg/mL; with C. freundii IFO 12681 it was 0.1 µg/mL; against CSJ 1922, 0.1 µg/mL. The minimal inhibitory concentration (MIC) with E. aeruginosa IFO 13534 is 0.2 µg/mL; in the series with E. cloacae IFO 3320, 0.025 µg/mL; with E. coli NIHJ JC-2, 0.2 µg/mL; with JU-5, 0.2 µg/mL; against K. pneumoniae B-54, 0.1 µg/mL; with M. morganii IFO 3848, 0.05 µg/mL. Also, the MIC came out at 0.39 µg/mL in the series on MRSA RN-10; 0.78 µg/mL with P. aeruginosa GNB-139; 0.05 µg/mL in the series on P. mirabilis IFO 13300; 0.2 µg/mL against P. rettgeri IFO 13501; 0.1 µg/mL against P. vulgaris IFO 3851; 0.39 µg/mL against S. aureus 209P. Further, the MIC in the series with S. epidermidis IFO 12993 was found to be 0.78 µg/mL; in the series with S. marcescens IFO 12648, 0.2 µg/mL; with S. typhimurium LT-2 it was 0.2 µg/mL; with TO-101, 0.2 µg/mL; with X. maltophilia IFO 14161, 0.78 µg/mL. In series [1] (setting [5]), the IC50 stood at 323 µg/mL. In addition, the viability at 48 h in [2] is over 100%.

On to `CCn1cc(C(=O)O)c(=O)c2cc(F)c(N3CCNCC3)nc21` [enoxacin], for which the “solubility under physiological conditions” value in series [3] was “poor solubility”.

On to `COc1c(C2(N)CCOCC2)c(F)cc2c(=O)c(C(=O)O)cn(C3CC3)c12.Cl` [Ex. 18, 7-(4-amino-2,3,5,6-tetrahydropyran-4-yl)-1-cyclopropyl-6-fluoro-8-methoxy-1,4-dihydro-4-oxo-3-quinolinecarboxylic acid hydrochloride], for which, in series [1] (setting [5]), the IC50 was over 800 µg/mL.
